The results in this text go back to PMC10924921, “Mi-2β promotes immune evasion in melanoma by activating EZH2 methylation” (Nature Communications, 2024).

What all share (assay): biochemical
What all share (design): KINOMEscan active-site competition binding panel (468 kinase assays), per cent of control at 1000 nM
Common to all, as to conditions: KINOMEscan per cent of control (binding competition); read-out: Percent Control

Assay [1] concerns the target T1, ABL1(H396P)-nonphosphorylated (Homo sapiens, UniProt P00519, H396P).
T1 construct: nonphosphorylated
An excerpt: (§1) Figure S7 / Percent Control

A further assay deals with ACVRL1 (Homo sapiens, UniProt P37023).
From the text: as §1

The next assay concerns the target BRAF(V600E) (Homo sapiens, UniProt P15056, V600E).
From the text: as §1

A further assay concerns the target CAMK1D (Homo sapiens, UniProt Q8IU85).
From the text: as §1

The next assay deals with CDKL5 (Homo sapiens, UniProt O76039).
From the text: as §1

A further assay has as its target CLK3 (Homo sapiens, UniProt P49761).
From the text: as §1

The next assay concerns the target EPHB3 (Homo sapiens, UniProt P54753).
From the text: as §1

The target in the next assay is T2, FAK (Homo sapiens, UniProt Q05397).
T2 construct: gene PTK2
From the text: as §1

The target in the next assay is FGFR3(G697C) (Homo sapiens, UniProt P22607, G697C).
From the text: as §1

In another assay the target is FLT3(N841I) (Homo sapiens, UniProt P36888, N841I).
From the text: as §1

Another assay deals with T3, IKK-alpha (Homo sapiens, UniProt O15111).
T3 construct: gene CHUK
From the text: as §1

The next assay deals with T4, JNK3 (Homo sapiens, UniProt P53779).
T4 construct: gene MAPK10
From the text: as §1

The target in a further assay is T5, LZK (Homo sapiens, UniProt O43283).
T5 construct: gene MAP3K13
From the text: as §1

Another assay addresses MAPKAPK2 (Homo sapiens, UniProt P49137).
From the text: as §1

A further assay has as its target MKNK1 (Homo sapiens, UniProt Q9BUB5).
From the text: as §1

Another assay has as its target T6, MST4 (Homo sapiens, UniProt Q9P289).
T6 construct: gene STK26
From the text: as §1

The target of the next assay is NEK10 (Homo sapiens, UniProt Q6ZWH5).
From the text: as §1

A further assay addresses RET(M918T) (Homo sapiens, UniProt P07949, M918T).
From the text: as §1

Assay [2] deals with T7, RPS6KA4(Kin.Dom.2-C-terminal) (Homo sapiens, UniProt O75676).
T7 construct: Kin.Dom.2-C-terminal
From the text: as §1

The target in the next assay is T8, S6K1 (Homo sapiens, UniProt P23443).
T8 construct: gene RPS6KB1
From the text: as §1

The target in a further assay is SBK1 (Homo sapiens, UniProt Q52WX2).
From the text: as §1

The target of another assay is TIE1 (Homo sapiens, UniProt P35590).
From the text: as §1

A further assay deals with WEE1 (Homo sapiens, UniProt P30291).
From the text: as §1

The target of the next assay is WNK3 (Homo sapiens, UniProt Q9BYP7).
From the text: as §1

T2 sequence (Q05397 whole entry): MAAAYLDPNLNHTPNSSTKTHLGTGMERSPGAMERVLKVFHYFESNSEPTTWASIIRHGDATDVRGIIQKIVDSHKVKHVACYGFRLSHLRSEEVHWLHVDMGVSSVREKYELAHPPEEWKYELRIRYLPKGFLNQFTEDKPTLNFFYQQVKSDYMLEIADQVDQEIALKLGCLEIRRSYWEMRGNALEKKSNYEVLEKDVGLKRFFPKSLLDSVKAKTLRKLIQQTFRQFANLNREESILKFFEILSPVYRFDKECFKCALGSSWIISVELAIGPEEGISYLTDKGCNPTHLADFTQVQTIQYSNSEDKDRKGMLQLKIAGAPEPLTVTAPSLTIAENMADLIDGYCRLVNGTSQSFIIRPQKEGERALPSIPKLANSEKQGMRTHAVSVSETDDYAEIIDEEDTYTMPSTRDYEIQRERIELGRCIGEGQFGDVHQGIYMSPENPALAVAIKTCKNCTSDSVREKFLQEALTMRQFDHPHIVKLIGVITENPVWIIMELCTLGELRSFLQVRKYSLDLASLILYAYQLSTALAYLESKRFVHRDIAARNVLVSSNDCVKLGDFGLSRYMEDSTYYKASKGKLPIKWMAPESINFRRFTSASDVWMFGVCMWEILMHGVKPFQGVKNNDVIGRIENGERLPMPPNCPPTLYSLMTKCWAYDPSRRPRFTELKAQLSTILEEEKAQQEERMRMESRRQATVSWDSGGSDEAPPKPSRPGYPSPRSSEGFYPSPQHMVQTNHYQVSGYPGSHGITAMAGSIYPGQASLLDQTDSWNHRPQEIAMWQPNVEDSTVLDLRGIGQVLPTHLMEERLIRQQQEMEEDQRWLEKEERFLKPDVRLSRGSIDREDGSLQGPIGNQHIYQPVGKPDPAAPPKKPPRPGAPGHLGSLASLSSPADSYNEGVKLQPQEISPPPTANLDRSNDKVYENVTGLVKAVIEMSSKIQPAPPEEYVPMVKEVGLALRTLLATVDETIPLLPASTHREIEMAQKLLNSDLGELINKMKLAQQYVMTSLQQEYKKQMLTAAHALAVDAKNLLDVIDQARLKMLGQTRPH
T8 sequence (P23443 whole entry): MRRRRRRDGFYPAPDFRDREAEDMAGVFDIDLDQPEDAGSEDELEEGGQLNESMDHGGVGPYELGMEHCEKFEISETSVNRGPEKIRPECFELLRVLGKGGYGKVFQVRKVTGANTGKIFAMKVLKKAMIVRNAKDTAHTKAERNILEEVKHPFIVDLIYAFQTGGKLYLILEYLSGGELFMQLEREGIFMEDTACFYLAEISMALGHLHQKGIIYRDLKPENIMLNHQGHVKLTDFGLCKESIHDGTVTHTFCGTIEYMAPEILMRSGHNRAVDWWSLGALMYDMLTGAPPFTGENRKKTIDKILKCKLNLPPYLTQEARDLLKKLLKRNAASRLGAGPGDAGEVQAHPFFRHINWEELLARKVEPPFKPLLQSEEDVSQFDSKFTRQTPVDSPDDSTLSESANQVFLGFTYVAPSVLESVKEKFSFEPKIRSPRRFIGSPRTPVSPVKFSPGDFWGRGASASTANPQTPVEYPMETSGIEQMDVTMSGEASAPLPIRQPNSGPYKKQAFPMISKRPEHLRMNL
Sequence of WNK3 (Q9BYP7 whole entry): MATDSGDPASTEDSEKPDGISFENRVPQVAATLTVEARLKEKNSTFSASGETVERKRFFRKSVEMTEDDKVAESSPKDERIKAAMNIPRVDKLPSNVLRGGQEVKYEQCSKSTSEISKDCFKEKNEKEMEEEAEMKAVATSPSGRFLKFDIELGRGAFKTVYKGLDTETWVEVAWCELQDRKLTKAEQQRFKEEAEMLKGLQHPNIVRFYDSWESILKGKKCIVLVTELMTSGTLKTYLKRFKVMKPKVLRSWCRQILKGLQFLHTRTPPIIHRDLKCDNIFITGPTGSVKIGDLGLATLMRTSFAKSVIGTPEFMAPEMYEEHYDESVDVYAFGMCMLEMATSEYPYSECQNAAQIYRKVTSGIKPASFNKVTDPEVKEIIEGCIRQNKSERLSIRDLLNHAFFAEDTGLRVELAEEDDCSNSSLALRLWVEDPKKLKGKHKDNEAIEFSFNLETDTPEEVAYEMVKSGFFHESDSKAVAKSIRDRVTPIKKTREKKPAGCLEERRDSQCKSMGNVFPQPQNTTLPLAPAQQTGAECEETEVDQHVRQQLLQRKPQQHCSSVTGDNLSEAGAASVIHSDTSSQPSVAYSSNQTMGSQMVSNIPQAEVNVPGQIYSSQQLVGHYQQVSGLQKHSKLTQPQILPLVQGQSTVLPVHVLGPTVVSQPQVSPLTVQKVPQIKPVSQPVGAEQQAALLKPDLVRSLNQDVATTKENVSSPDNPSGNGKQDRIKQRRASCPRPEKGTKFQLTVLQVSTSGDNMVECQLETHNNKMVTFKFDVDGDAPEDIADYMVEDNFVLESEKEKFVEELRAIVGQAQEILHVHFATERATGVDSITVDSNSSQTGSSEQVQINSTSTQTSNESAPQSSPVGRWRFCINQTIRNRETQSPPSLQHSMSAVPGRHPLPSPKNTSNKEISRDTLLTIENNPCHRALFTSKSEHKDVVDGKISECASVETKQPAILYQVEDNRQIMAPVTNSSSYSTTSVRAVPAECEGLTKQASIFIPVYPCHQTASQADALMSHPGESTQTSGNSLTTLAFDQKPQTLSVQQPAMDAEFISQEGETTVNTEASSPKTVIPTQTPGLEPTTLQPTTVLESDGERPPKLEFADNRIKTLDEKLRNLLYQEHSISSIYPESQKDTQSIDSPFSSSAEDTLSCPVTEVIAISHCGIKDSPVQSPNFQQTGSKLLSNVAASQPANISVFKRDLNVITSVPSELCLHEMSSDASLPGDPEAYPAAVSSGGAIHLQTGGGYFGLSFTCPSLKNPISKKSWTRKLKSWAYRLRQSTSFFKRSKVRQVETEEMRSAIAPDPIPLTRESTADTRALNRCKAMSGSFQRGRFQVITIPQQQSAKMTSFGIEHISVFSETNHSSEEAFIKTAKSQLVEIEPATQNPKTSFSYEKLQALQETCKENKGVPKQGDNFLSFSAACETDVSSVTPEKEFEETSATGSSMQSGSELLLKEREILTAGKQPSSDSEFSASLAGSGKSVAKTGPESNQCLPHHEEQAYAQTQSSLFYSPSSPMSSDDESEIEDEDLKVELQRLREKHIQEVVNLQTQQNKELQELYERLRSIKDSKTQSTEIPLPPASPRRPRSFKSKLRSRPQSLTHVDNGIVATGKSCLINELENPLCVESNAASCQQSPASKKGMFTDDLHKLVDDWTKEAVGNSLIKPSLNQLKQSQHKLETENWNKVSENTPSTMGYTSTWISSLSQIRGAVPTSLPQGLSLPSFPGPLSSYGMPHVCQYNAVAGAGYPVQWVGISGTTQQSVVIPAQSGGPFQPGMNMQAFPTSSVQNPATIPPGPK
Sequence of ACVRL1 (P37023 whole entry): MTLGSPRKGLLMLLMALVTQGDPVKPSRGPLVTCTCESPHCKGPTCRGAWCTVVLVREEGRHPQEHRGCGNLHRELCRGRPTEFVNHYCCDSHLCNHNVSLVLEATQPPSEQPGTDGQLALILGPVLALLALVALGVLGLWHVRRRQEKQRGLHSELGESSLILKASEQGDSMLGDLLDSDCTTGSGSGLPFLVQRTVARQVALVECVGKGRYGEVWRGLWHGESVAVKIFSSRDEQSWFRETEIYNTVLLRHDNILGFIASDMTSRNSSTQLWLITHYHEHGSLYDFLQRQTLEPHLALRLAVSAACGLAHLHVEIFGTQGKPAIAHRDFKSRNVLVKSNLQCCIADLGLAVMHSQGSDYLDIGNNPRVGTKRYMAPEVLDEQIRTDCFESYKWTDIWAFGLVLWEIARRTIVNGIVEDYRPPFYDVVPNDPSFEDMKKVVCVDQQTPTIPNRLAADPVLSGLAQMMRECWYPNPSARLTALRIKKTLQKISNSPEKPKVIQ
Sequence of CDKL5 (O76039 whole entry): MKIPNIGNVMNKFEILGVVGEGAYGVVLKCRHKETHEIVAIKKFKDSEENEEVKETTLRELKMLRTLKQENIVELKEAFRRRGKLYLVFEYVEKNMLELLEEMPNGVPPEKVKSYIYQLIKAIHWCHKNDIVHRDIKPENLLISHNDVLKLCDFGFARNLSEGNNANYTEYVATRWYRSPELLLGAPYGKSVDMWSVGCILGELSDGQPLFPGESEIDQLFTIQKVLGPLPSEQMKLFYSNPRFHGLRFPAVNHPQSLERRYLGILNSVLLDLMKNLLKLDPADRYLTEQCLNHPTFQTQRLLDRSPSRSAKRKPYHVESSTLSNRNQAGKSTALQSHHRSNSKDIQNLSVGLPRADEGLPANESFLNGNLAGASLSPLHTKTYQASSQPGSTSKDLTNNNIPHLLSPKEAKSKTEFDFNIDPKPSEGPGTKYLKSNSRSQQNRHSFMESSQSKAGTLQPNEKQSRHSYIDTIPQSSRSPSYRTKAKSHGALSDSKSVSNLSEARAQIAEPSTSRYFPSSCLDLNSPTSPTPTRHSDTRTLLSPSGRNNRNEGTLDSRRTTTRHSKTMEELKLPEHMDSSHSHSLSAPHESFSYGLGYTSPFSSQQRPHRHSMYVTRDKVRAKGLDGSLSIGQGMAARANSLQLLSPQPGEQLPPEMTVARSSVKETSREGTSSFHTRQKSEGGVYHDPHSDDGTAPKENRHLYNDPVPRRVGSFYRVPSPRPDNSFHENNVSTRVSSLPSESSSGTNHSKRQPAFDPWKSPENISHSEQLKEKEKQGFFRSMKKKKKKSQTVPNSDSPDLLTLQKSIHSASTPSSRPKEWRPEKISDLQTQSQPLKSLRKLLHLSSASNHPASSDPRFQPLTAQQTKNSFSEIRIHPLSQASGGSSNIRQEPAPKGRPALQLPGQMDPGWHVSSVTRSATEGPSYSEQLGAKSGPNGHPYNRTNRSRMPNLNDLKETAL

`Cn1c(=O)[nH]c2ccc(-c3cccc(C(=O)NC4CCn5ccnc5C4)c3)cc21` (stereo not drawn) [Z36-MP5]: the remaining binding at 1 µM was determined as 69% in assay [1]; 92% at ACVRL1; 89% at BRAF(V600E); 61% on CAMK1D; 39% on CDKL5; 91% at CLK3. In addition, the remaining binding at 1 µM stood at 78% on EPHB3; 88% on FAK; 49% on FGFR3(G697C); 63% on FLT3(N841I); 80% at IKK-alpha; 100% on JNK3. The remaining binding at 1 µM on LZK worked out at 63%; at MAPKAPK2 it was 55%; at MKNK1, 100%; on MST4, 82%; at NEK10 it was 50%; on RET(M918T), 90%. Further, the remaining binding at 1 µM stood at 59% in assay [2]; 50% at S6K1; 74% on SBK1; 97% on TIE1; 100% on WEE1; 69% at WNK3.
